The text below walks through data of PMC4721923 (PLoS ONE, 2015).

In data set [1] the test system is HEL 92.1.7 cells (erythroleukemia). Briefly: Chemosensitivity assay (MTT-assay), HEL 92.1.7. It is filed as cell-based, human. The note with it: Homo sapiens, HEL 92.1.7, 96 h, 96 hours of incubation, mean ± SEM. The method, then: (§1) Depending on the characteristics of the cells, two different assays were performed. For adherently growing cells (HaCaT, HT-29, NCI-H460, SK-MEL-3, MG-63, Capan-1), cytotoxic and cytocidal effects were determined in the crystal violet assay, whereas for loosely adherent cells (LNCaP, SK-ES-1) and cells growing in suspension (HEL 92.1.7, Jurkat, U-937) the MTT-assay was used with minor modifications. In brief, 1.5 · 10^3 (HaCaT, HT-29, NCI-H460, SK-MEL-3, MG-63, Capan-1) or 5 · 10^3 (Jurkat, U-937, HEL92.1.7, LNCaP, SK-ES-1) cells per well were seeded into flat-bottom 96-well plates (Sarstedt, Nümbrecht, Germany). All compounds were used as solutions prepared in DMSO and tested at final concentrations (8 replicates per concentration) of 1, 3, 10, 30 and 50 μM. In case of the vehicle control and test compounds, the final DMSO concentration amounted to 0.1%. Absorbance was measured at 580 nm in a 96-well plate reader (GENios pro microplate reader, Tecan, Salzburg, Austria). Effects were quantified as previously described for both assays.
For orientation: Tetrazolium assays rely on reduction of a dye to a coloured formazan, in cell work by metabolically active cells.

Data set [2] has as its system Jurkat cells (acute T-cell leukemia). Briefly: Chemosensitivity assay (MTT-assay), Jurkat. The format is cell-based, human. Particulars: Homo sapiens, 96 h, 96 hours of incubation, mean ± SEM. On the procedure: as §1
Data set [3] has as its system U-937 cells (histiocytic lymphoma). The experiment in a line: Chemosensitivity assay (MTT-assay), U-937. It is filed as cell-based, human. Particulars: Homo sapiens, U-937, 96 h, 96 hours of incubation, mean ± SEM. On the procedure: as §1
In data set [4] the test system is MG-63 cells (osteosarcoma). The experiment in a line: Chemosensitivity assay (crystal violet assay), MG-63. The note with it: Homo sapiens, MG-63, 96 h, 96 hours of incubation, crystal violet assay, mean ± SEM. The format is cell-based, human. On the procedure: as §1
The subject of data set [5] is SK-ES-1 cells (Ewing's sarcoma). Briefly: Chemosensitivity assay (MTT-assay), SK-ES-1. The format is cell-based, human. Particulars: 96 hours of incubation, mean ± SEM. On the procedure:
as §1

For data set [6], the system named is Capan-1 cells (pancreatic adenocarcinoma). Briefly: Chemosensitivity assay (crystal violet assay), Capan-1. It is filed as cell-based, human. The note with it: Homo sapiens, CAPAN-1, 96 h, 96 hours of incubation, mean ± SEM. The method, then:
as §1

Data set [7] concerns LNCaP cells (prostate cancer). Briefly: Chemosensitivity assay (MTT-assay), LNCaP. It is filed as cell-based, human. The note with it: Homo sapiens, 96 hours of incubation, mean ± SEM, read-out: IC50. On the procedure: as §1
In data set [8] the test system is NCI-H460 cells (large cell lung cancer). The experiment in a line: Chemosensitivity assay (crystal violet assay), NCI-H460. It is filed as cell-based, human. Particulars: Homo sapiens, 96 hours of incubation, mean ± SEM, read-out: IC50. The method, then: as §1
Data set [9] concerns HT-29 cells (colorectal adenocarcinoma). The experiment in a line: Chemosensitivity assay (crystal violet assay), HT-29. Particulars: Homo sapiens, 96 hours of incubation, mean ± SEM, read-out: IC50. The format is cell-based, human. On the procedure:
as §1

The subject of data set [10] is SK-MEL-3 cells (malignant melanoma). The experiment in a line: Chemosensitivity assay (crystal violet assay), SK-MEL-3. The format is cell-based, human. Particulars: Homo sapiens, SK-MEL3, 96 hours of incubation, mean ± SEM, read-out: IC50. The method, then:
as §1

For another data set, the target named is T1, OCT1 (Homo sapiens, UniProt O15245).
T1 construct: containing the full length SLC22A1 cDNA (NM_003057) encoding the human OCT1 protein; expressed in transfected cells
T1 sequence (O15245 1-554): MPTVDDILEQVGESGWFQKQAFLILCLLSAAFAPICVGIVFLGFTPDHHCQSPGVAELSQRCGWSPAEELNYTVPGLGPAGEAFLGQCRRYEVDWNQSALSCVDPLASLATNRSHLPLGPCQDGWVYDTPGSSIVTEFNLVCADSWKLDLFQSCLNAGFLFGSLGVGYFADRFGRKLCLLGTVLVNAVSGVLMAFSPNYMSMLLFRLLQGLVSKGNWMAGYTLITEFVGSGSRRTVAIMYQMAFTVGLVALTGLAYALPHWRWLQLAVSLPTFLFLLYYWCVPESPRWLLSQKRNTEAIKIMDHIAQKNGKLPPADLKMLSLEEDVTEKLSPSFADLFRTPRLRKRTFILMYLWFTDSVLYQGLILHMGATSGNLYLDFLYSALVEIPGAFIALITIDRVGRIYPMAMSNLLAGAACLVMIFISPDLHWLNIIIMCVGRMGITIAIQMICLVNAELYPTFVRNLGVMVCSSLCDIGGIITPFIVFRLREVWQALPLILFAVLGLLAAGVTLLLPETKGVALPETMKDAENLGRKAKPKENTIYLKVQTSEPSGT
Briefly: Michaelis-Menten kinetics of ASP+ uptake, HEK-OCT1. It is filed as cell-based. On the procedure: (§2) The previously described fluorescent substrate of organic cation transporters, 4-(4-dimethylaminostyryl)-N-methylpyridinium (ASP^+), was used to determine the function of OCT1 and OCT3 by flow cytometry in the absence and the presence of bendamustine and selected bendamustine esters. HEK293 cells expressing the transporter of interest were trypsinized and washed twice with PBS, prior to re-suspension of 0.5 · 10^6 cells in 500 μL of PBS containing 2% (v/v) FCS. The cells were incubated with ASP^+ (100 μM stock solution in PBS containing 10% DMSO) for 5 minutes, allowing for cellular accumulation, and subsequently analyzed with a FACSCalibur flow cytometer. ASP^+ was excited at 488 nm and the fluorescence was measured using a 530/30 nm and a 585/42 band-pass filter. At least 1 · 10^4 single cells were analyzed by appropriate FSC/SSC gating.
(§3) Subsequently, two volumes of an ice-cold 200 μM solution of the standard inhibitor of OCT1 and OCT3, tetrapentyl ammonium (TPA), in PBS/FCS were added to one volume of cell suspension. The mixture was immediately analyzed. The mean fluorescence intensities (MFI) were calculated using FlowJo V10, and the difference between total (HEK-OCT1 or HEK-OCT3 cells) and unspecific (HEK-Co cells) uptake was plotted as specific uptake against the concentration of ASP^+. […] Km was calculated according to the Michaelis-Menten equation using GraphPad Prism 5.01.

The next data set has as its target T2, OCT3 (Homo sapiens, UniProt O75751).
T2 construct: expressed in transfected cells; host or cells: HEK293 (HEK-OCT3)
T2 sequence (O75751 1-556): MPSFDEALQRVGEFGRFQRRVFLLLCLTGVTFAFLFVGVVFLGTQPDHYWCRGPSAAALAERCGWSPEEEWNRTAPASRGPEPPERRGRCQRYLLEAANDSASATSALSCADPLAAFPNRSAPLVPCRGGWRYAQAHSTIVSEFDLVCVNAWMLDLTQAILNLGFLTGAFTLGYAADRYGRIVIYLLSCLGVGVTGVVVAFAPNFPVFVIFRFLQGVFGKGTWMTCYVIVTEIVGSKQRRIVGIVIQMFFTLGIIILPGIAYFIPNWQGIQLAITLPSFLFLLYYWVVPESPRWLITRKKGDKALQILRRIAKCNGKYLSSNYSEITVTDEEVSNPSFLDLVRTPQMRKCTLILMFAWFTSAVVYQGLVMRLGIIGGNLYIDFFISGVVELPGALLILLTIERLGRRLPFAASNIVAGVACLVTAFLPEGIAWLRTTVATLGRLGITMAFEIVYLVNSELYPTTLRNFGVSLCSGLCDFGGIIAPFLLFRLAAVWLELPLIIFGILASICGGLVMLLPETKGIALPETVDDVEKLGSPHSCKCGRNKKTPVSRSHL
The experiment in a line: Michaelis-Menten kinetics of ASP+ uptake, HEK-OCT3. It is filed as cell-based. On the procedure:
as §2, §3

Substrate in data set [11]: CN(C)c1ccc(/C=C/c2cc[n+](C)cc2)cc1
Briefly: Michaelis-Menten kinetics of ASP+ uptake, HEK-OCT1. The format is cell-based, human. The note with it: other: HEK-OCT1; substrate uptake, flow cytometry; 37.0 °C. The method, then:
as §2, §3

Substrate in data set [12]: CN(C)c1ccc(/C=C/c2cc[n+](C)cc2)cc1
The experiment in a line: Michaelis-Menten kinetics of ASP+ uptake, HEK-OCT3. The note with it: other: HEK-OCT3; substrate uptake, flow cytometry; 37.0 °C. The format is cell-based, human. On the procedure: as §2, §3

Regarding `Cn1c(CCCC(=O)OCCN2CCCCC2)nc2cc(N(CCCl)CCCl)ccc21` [Compound 6], the IC50 (commonly the concentration that inhibits the measured activity by half) in data set [1] is 1300 ± 100 nM; in data set [2], 830 ± 10 nM; in data set [3], 1100 ± 200 nM; in data set [4] it was 530 ± 10 nM; in data set [5] (Homo sapiens, SK-ES1, 96 h), 190 ± 10 nM; in data set [6], 170 ± 10 nM. For the same molecule, the IC50 in data set [7] came to 750 ± 30 nM; in data set [8], 1200 ± 100 nM; in data set [9], 1700 ± 100 nM; in data set [10], 1240 ± 100 nM.
In the case of `CN1CCN(CCOC(=O)CCCc2nc3cc(N(CCCl)CCCl)ccc3n2C)CC1` [Compound 7], the IC50 stood at 1700 ± 100 nM in data set [1]; 900 ± 30 nM in [2]; 1300 ± 300 nM in data set [3]; 550 ± 10 nM in data set [4]; 190 ± 30 nM in data set [5] (Homo sapiens, SK-ES1, 96 h); 250 ± 20 nM in data set [6]. Also, the IC50 is 930 ± 120 nM in data set [7], 1200 ± 100 nM in [8], 2400 ± 100 nM in data set [9] and 1000 ± 270 nM in data set [10].
In the case of `CN(C)c1ccc(C=Cc2cc[n+](C)cc2)cc1.[I-]` [ASP^+, 4-[4-(dimethylamino)styryl]-N-methylpyridinium iodide], the results for the “vmax (maximal uptake rate)” value at OCT1 and on OCT3 were 2808 ± 78 MFI/(10^4 cells · min) and 5321 ± 89 MFI/(10^4 cells · min), respectively.
Take `CCOC(=O)CCCc1nc2cc(N(CCCl)CCCl)ccc2n1C` [Compound 3]: the IC50 in [1] is 2900 ± 200 nM; in data set [2] it was 3800 ± 40 nM; in data set [3], 1900 ± 10 nM; in data set [4] it was 2100 ± 60 nM; in [5], 180 ± 10 nM; in data set [5] (Homo sapiens, SK-ES1, 96 h), around 200 nM. Besides, the IC50 in data set [6] came out at 1000 ± 10 nM; in data set [7] it was 1500 ± 100 nM; in data set [8] it was 4800 ± 100 nM; in [9] it was 10000 ± 100 nM; in data set [10] it was 21700 ± 4100 nM.

B1: human OCT1 (Homo sapiens) (protein)
chain: T1 sequence (O15245 1-554)
notes: containing the full length SLC22A1 cDNA (NM_003057) encoding the human OCT1 protein; expressed in transfected cells
Consider B1, for which the Km – broadly, the concentration of substrate that gives half-maximal velocity – in data set [11] turned out to be 3.1 ± 0.1 µM.

B2: OCT3 (Homo sapiens) (protein)
chain: T2 sequence (O75751 1-556)
notes: expressed in transfected cells; host or cells: HEK293 (HEK-OCT3)
Consider B2, for which the Km in data set [12] was determined as 2.7 ± 0.1 µM.
